Data taken from paper PMC5834492, “Antimycobacterial drug discovery using Mycobacteria-infected amoebae identifies anti-infectives and new molecular targets” (Scientific Reports, 2018).

Assays:
[1] = system: Mtb H37Rv; set-up: method as in Sorrentino et al, 2015; conditions: ref Sorrentino et al, 2015; cited from earlier work
[2] = system: BV2 cells
[3] = system: M. marinum luxCDABE; type: cell-based, Mycobacterium marinum
[4] = system: D. discoideum GFP-ABD
[5] = system: M. marinum in A. castellanii; type: cell-based, Mycobacterium marinum
[6] = system: M. marinum in BV2 microglial cells; type: cell-based, Mycobacterium marinum
[7] = system: Mtb H37Rv in THP-1; set-up: method as in Sorrentino et al, 2015; conditions: ref Sorrentino et al, 2015, cited from earlier work; for Intracelullar MIC90 in THP-1: THP1 / Mtb H37Rv infection assay; for Extracellular MIC90/ Inracellular MIC90: ratio

Row | SMILES | Extracellular MIC90 [1] [µM] | Growth inhibition / Cytotoxicity assays: BV2 cells [2] | Antibiotic assays: M. marinum luxCDABE [3] | Growth inhibition / Cytotoxicity assays: D. discoideum GFP-ABD [4] | Intracellular infection assays: A. castellanii / M. marinum [5] | Intracellular infection assays: BV2 / M. marinum [6] | Intracelullar MIC90 in THP-1 [7] [µM] | Extracellular MIC90/ Inracellular MIC90 [7]
1 | Cc1cc(OCC(=O)NCc2ccccc2)c2cc(Br)ccc2n1 [GSK124576A] | 2.3 | False | 0.00 | 0.91 | 1.13 | 1.05 | 5.55 | 0.41
2 | Cc1ccc(SCCNC(=O)c2c(-c3ccccc3)noc2C)cc1 [GSK1863309A] | 7.8 | False | 0.00 | 0.97 | 1.09 | 1.12 | 16.65 | 0.47
3 | O=C(C=Cc1ccccc1)N1CCN(Cc2ccc3c(c2)OCO3)CC1 [SB-516933] | 3.7 | False | 0.41 | 0.97 | 1.12 | 1.10 | 5.55 | 0.67
4 | CCc1ccc(C2CC(C(F)(F)F)n3ncc(C(=O)NCc4ccc(OC)cc4)c3N2)cc1 (stereo not drawn) [GSK1589673A] | 4.9 | False | 1.00 | 1.16 | 1.34 | 1.29 | 0.61 | 8.03
5 | COc1cc(Cc2cnc(N)nc2N)c2cnccc2c1N(C)C [GW360240X] | 3 | False | 0.74 | 1.13 | 1.10 | 1.06 | 50 | 0.06
6 | COc1ccc2cc(C(=O)Nc3ccc(C4CCN(C)CC4)cc3)sc2c1 [GSK1635139A] | 9.5 | False | 1.00 | 0.78 | 1.28 | 1.15 | 50 | 0.19
7 | O=C(CCC1CCCCC1)Nc1cccc(-c2nnc(-c3ccco3)o2)c1 [GSK937213A] | 6.1 | False | 0.00 | 1.19 | 1.06 | 1.14 | 0.61 | 10
8 | O=C(CCSc1ccc(Cl)cc1)Nc1nc(-c2ccccn2)cs1 [GSK920703A] | 8.4 | False | 0.13 | 0.48 | 1.34 | 1.24 | 5.55 | 1.51
9 | CN1CCN(c2cc(-c3ccc(F)cc3)nc(-c3ccncc3)n2)CC1 [GSK276001A] | 7.4 | False | 0.63 | 0.65 | 1.04 | 1.11 | 50 | 0.15
10 | Fc1ccc2nc(Nc3nc(-c4ccccn4)cs3)sc2c1 [GSK735816A] | 2.3 | False | 0.00 | 0.37 | 1.17 | 1.37 | 1.85 | 1.24
11 | COc1ccc(CC(=O)Nc2c(-c3cccs3)nc3cc(C)ccn23)cc1 [GSK1857145A] | 6.8 | False | 1.00 | 0.93 | 1.19 | 1.12 | 5.55 | 1.22
12 | O=C(c1[nH]nc2c1CCCC2)N1CCN(Cc2ccc3c(c2)OCO3)CC1 [SB-712970] | 4.5 | False | 0.00 | 0.79 | 1.13 | 1.28 | 5.55 | 0.81
13 | c1ccc(Cc2nnc(Sc3ccnc(N4CCN(c5ccncc5)CC4)n3)n2CCN2CCOCC2)cc1 [GSK547511A] | – | False | 0.13 | 1.02 | 0.94 | 1.36 | >50 | –
14 | O=C(Cc1ccc(F)cc1)Nc1nc(-c2ccccn2)cs1 [GSK1570606A] | – | False | 0.00 | 0.06 | 1.21 | 1.05 | >50 | –
15 | O=C(CCCSc1ccccc1)NNC(=O)c1cccs1 [GSK2157753A] | – | False | 0.11 | 1.04 | 1.00 | 1.67 | >50 | –
16 | NC(=O)c1cc(-c2ccsc2)ccc1OCCOc1ccccc1 [GSK1365028A] | – | False | 0.00 | 0.94 | 1.14 | 1.42 | >50 | –
17 | O=C(Nc1nnc(-c2ccc(Cl)s2)o1)c1ccc(Cl)s1 [GSK316438A] | – | False | 0.09 | 0.70 | 1.32 | 1.30 | >50 | –
